Measured values reported in patent US20240376154A1, “BIS-INTERCALATING PEPTIDES, CONJUGATES AND METHODS OF USE” (ZYMEWORKS BC INC., priority 2023, published 2024).

Columns and labels:
[1] = test system: herring sperm DNA; experiment: DNA melting temperature by differential scanning calorimetry (DSC); format: binding; settings: DSC; herring sperm DNA; DNA melting temperature = 68° C.
Experimental: Representative compounds prepared as described in Example 2 were assessed in two complementary DNA-binding assays. Increased melting temperature of herring sperm DNA was measured using differential scanning calorimetry (DSC) and binding kinetics were determined by surface plasmon resonance (SPR) using a short DNA hairpin sequence.
DSC experiments were conducted as described in Leng, 2003, Nucleic Acids Res., 31 (21): […], using a Nano DSC (TA Instruments, New Castle, DE) and analyzed using the NanoAnalyze™ software package. Herring sperm DNA solution (Invitrogen 15634017, 10 mg/mL) was diluted to 1 mg/mL (1.4 mM base pair) in BPE buffer (6 mM Na2HPO4, 2 mM NaH2PO4, 1 mM Na4EDTA, pH 7.0). Test articles (20 μL, 10 mM in DMSO) were added and allowed reach equilibrium binding (>3 h), any insoluble material was removed by low-speed centrifugation, then samples were heated from 25 to 110° C. at a scan rate of 1° C./min. Melting curves were plotted and melting temperature was determined using NanoAnalyze™.

[2] = Lipophilicity by experimental HPLC retention time; format: physicochemical; settings: HPLC retention time as measure of lipophilicity; C18, 10 to 90% CH3CN/H2O with 0.1% FA over 25 min
Outline: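 Reversed-phase HPLC with diode array detection on a Kinetex EVO C18 150×4.6, 2.6 μm column. Gradient 10 to 90% CH3CN/H2O with 0.1% FA over 25 min; retention time serves as the lipophilicity measure.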

[3] = Stability in female mouse plasma; format: in vitro ADME; settings: 37° C., 24 h; for plasma stability (in words): 1 μM
Experimental: The stability of exemplary compounds of general Formula I in mouse plasma was evaluated as follows.
Compounds were incubated at 1 μM in duplicate in female mouse plasma, 250 μL final volume, at 37° C. for 24 h. Aliquots were sampled at 0, 15, 30, 60, 120, 240, 480 and 1440 min. Proteins were precipitated by addition of 5 volumes of cold methanol. After centrifugation 10000×g for 10 min, the residual concentration of compound in the supernatant was measured using an appropriate LC-MS/MS method. The measured concentrations were expressed as a function of time through a one-phase decay exponential regression calculated using GraphPad Prism software (GraphPad Software, Inc.) to generate the plasma half-life for each compound.

[4] = test system: tumour cells (at least 4 of a panel of ovarian, breast, lung, pancreatic, placenta, colon cell lines); experiment: In vitro cytotoxicity (cell proliferation, CellTiter-Glo), average over tumour cell line panel; format: cell-based; settings: average pIC50 on all cell lines tested; 5 nights incubation; CellTiter-Glo
Outline: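 Each cell line seeded at ~1000 cells/well and left to adhere overnight, then given a 10-point 1:3 compound titration for 5 nights at 37° C, 5% CO2. Viability read by CellTiter-Glo luminescence; IC50 per line, reported as pIC50 averaged across at least 4 lines.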

| SMILES | DNA melt (° C.) [1] [°C] | HPLC [2] [min] | half-life at 1 μM ([3]; female, mouse, plasma) [h] | pIC50 (average) [4] | plasma stability (in words) [3] |
| --- | --- | --- | --- | --- | --- |
| CC(C)[C@H]1C(=O)NC[C@@H](NC(=O)c2nc3ccccc3cc2O)C(=O)N2CCCC[C@H]2C(=O)NCC(=O)N(C)CC(=O)N(C)[C@@H](C(C)C)C(=O)OC[C@@H](NC(=O)c2nc3ccccc3cc2O)C(=O)N2CCCC[C@H]2C(=O)NCC(=O)N(C)CC(=O)N1C [Compound 14, N,N′-((7R,11S,19aS,26R,30S,38aS)-11,30-diisopropyl-12,15,31,34-tetramethyl-6,10,13,16,19,25,29,32,35,38-decaoxotetratriacontahydro-2H,6H,10H-dipyrido[2,1-b1: 2′,1′-l][1]oxa[4,7,10,13,17,20,23,26,29]nonaazacyclodotriacontine-7,26-diyl)bis(3-hydroxyquinoline-2-carboxamide)] | 97 | 19.6 | 12.3 | 8.5 | – |
| CC[C@H](C)[C@H]1C(=O)NC[C@@H](NC(=O)c2nc3ccccc3cc2O)C(=O)N2CCCC[C@H]2C(=O)NCC(=O)N(C)CC(=O)N(C)[C@@H]([C@@H](C)CC)C(=O)NC[C@@H](NC(=O)c2nc3ccccc3cc2O)C(=O)N2CCCC[C@H]2C(=O)NCC(=O)N(C)CC(=O)N1C [Compound 67, N,N′-((7R,11S,19aS,26R,30S,38aS)-11,30-di((S)-sec-butyl)-12,15,31,34-tetramethyl-6,10,13,16,19,25,29,32,35,38-decaoxohexatriacontahydro-2H,6H-dipyrido[1,2-a:1′,2′-q][1,4,7,10,13,17,20,23,26,29]decaazacyclodotriacontine-7,26-diyl)bis(3-hydroxyquinoline-2-carboxamide)] | 91 | 18.8 | – | 8.6 | stability over the course of the experiment |
| CCN1CC(=O)N(C)[C@@H](C(C)C)C(=O)NC[C@@H](NC(=O)c2nc3ccccc3cc2O)C(=O)N2CCCC[C@H]2C(=O)NCC(=O)N(CC)CC(=O)N(C)[C@@H](C(C)C)C(=O)NC[C@@H](NC(=O)c2nc3ccccc3cc2O)C(=O)N2CCCC[C@H]2C(=O)NCC1=O [Compound 132, N,N′-((7R,11S,19aS,26R,30S,38aS)-15,34-diethyl-11,30-diisopropyl-12,31-dimethyl-6,10,13,16,19,25,29,32,35,38-decaoxohexatriacontahydro-2H,6H-dipyrido[1,2-a:1′,2′-q][1,4,7,10,13,17,20,23,26,29]decaazacyclodotriacontine-7,26-diyl)bis(3-hydroxyquinoline-2-carboxamide)] | – | 18.5 | – | 8.6 | stability over the course of the experiment |
| CC(C)[C@H]1COC[C@@H](NC(=O)c2nc3ccccc3cc2O)C(=O)N2CCCC[C@H]2C(=O)NCC(=O)N(C)CC(=O)N(C)[C@@H](C(C)C)C(=O)NC[C@@H](NC(=O)c2nc3ccccc3cc2O)C(=O)N2CCCC[C@H]2C(=O)NCC(=O)N(C)CC(=O)N1C [Compound 178, N,N′-((7R,11S,19aS,26R,30S,38aS)-11,30-diisopropyl-12,15,31,34-tetramethyl-6,13,16,19,25,29,32,35,38-nonaoxotetratriacontahydro-2H,6H,10H-dipyrido[2,1-b1: 2′,1′-l][1]oxa[4,7,10,13,17,20,23,26,29]nonaazacyclodotriacontine-7,26-diyl)bis(3-hydroxyquinoline-2-carboxamide)] | 92 | 18.4 | – | 8.1 | stability over the course of the experiment |
